Data: US9173842B2, “Stable pharmaceutical composition comprising a hydrosoluble vinflunine salt” (PIERRE FABRE MEDICAMENT, priority 2007, dated 2015)

Assay: Stability tests at 5° C. and 25° C. under sealed conditions after 3 months (impurity content)
Format: physicochemical
Settings: sealed packaging, % of the total weight of the composition
Protocol: The composition in the forms of capsule A and B were packaged in sealed packers. They were stored for 3 months at 5° C. at an external humidity level of 20%, or at 25° C. at an external humidity level of 60%.
The weight content in impurities (in % of the total weight of the composition) was assayed immediately […], then after 3 months of storage. The difference between these two percentages gives the change in impurity content.
It is compared to that obtained for freeze-dried vinflunine ditartrate stored under the same conditions.

vinflunine ditartrate
Changes in impurity levels at 5° C. (3 months at 5° C., external humidity 20%): +0.8%
Changes in impurity levels at 25° C. (3 months at 25° C., external humidity 60%): +1.9%
